Assay results published in ChEMBL document CHEMBL1201862, “PubChem BioAssay data set” (2004).
“And” between values parts separate entries of the source, which are not always exact repeats. Equal entries are not always repeated.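 Dose response: 5 concentrations. Exposure: 48 h. Format: 96-well plates. Endpoint: linear interpolation; highest concentration if not reached. Here, GI50 denotes the concentration required for 50% inhibition of growth.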 The source made the active and inactive calls. Rule as the data show it: active = GI50 up to about 1.1 µM and inactive = higher.

What was measured:
Experiment in all cases: DTP human tumour cell line panel, 48 h
ACHN = system: ACHN
CCRF-CEM = system: CCRF-CEM
EKVX = system: EKVX
HCC 2998 = system: HCC 2998
HT-29 = system: HT-29
KM12 = system: KM12
LOX IMVI = system: LOX IMVI
M14 = system: M14
NCI-H226 = system: NCI-H226
NCI-H23 = system: NCI-H23
NCI-H460 = system: NCI-H460
NCI-H522 = system: NCI-H522
OVCAR-3 = system: OVCAR-3
PC-3 = system: PC-3
RXF 393 = system: RXF 393
SF-268 = system: SF-268
SK-OV-3 = system: SK-OV-3
UACC-257 = system: UACC-257
UO-31 = system: UO-31
HL-60 = system: HL-60

| Structure (SMILES) | GI50 (ACHN) | GI50 (CCRF-CEM) | GI50 (EKVX) | GI50 (HCC 2998) | GI50 (HT-29) | GI50 (KM12) | GI50 (LOX IMVI) | GI50 (M14) | GI50 (NCI-H226) | GI50 (NCI-H23) | GI50 (NCI-H460) | GI50 (NCI-H522) | GI50 (OVCAR-3) | GI50 (PC-3) | GI50 (RXF 393) | GI50 (SF-268) | GI50 (SK-OV-3) | GI50 (UACC-257) | GI50 (UO-31) | GI50 (HL-60) |
| --- | --- | --- | --- | --- | --- | --- | --- | --- | --- | --- | --- | --- | --- | --- | --- | --- | --- | --- | --- | --- |
| CC(C)c1ccc2c(c1)/C(=C1/Nc3ccccc3/C1=N/O)C(=O)N2 | 3.33 µM (inactive) | 3.14 µM (inactive) | 4.51 µM (inactive) | 4.75 µM (inactive) | 4.69 µM (inactive) | 0.0431 µM (active) | 5.07 µM (inactive) | 11.5 µM (inactive) | 10.8 µM (inactive) | 3.93 µM (inactive) | 4 µM (inactive) | 4.06 µM (inactive) | 7.46 µM (inactive) | 6.64 µM (inactive) | 2.07 µM (inactive) | 7 µM (inactive) | 6.55 µM (inactive) | 12.1 µM (inactive) | 3.69 µM (inactive) | – |
| CCN(CC)CCOC(c1cc(OC)ccc1OC)c1ccc2n1-c1ccccc1OC2 (stereo not drawn) | 13.8 µM (inactive) | 3.25 µM (inactive) | 16.1 µM (inactive) | 5.31 µM (inactive) | 3.41 µM (inactive) | 16.5 µM (inactive) | 11.5 µM (inactive) | 15.7 µM (inactive) | 3.98 µM (inactive) | 12.9 µM (inactive) | 12.4 µM (inactive) | 15.2 µM (inactive) | 15.7 µM (inactive) | 12.8 µM (inactive) | 8.91 µM (inactive) | 14.5 µM (inactive) | – | 16 µM (inactive) | 11 µM (inactive) | 13.2 µM (inactive) |
| O=C(c1ccc(O)c([N+](=O)[O-])c1)c1ccc(O)c([N+](=O)[O-])c1 | > 100 µM (inactive) | 31.9 µM (inactive) | > 100 µM (inactive) | > 100 µM (inactive) | > 100 µM (inactive) | 35.2 µM (inactive) | > 100 µM (inactive) | > 100 µM (inactive) | > 100 µM (inactive) | > 100 µM (inactive) | > 100 µM (inactive) | > 100 µM (inactive) | > 100 µM (inactive) | 66.5 µM (inactive) | > 100 µM (inactive) | > 100 µM (inactive) | > 100 µM (inactive) | 81.7 µM (inactive) | 66.2 µM (inactive) | – |
| Clc1ccc(-c2nn3c(COc4cccc(OCc5nnc6sc(-c7ccc(Cl)cc7)nn56)c4)nnc3s2)cc1 | 22.4 µM (inactive) | – | 21.3 µM (inactive) | 32.1 µM (inactive) | 24.5 µM (inactive) | 29.5 µM (inactive) | 26.3 µM (inactive) | 27.4 µM (inactive) | > 100 µM (inactive) | 22.3 µM (inactive) | 31 µM (inactive) | 22.8 µM (inactive) | 6.78 µM (inactive) | 33.1 µM (inactive) | 16.1 µM (inactive) | 21.7 µM (inactive) | 51.3 µM (inactive) | 26.1 µM (inactive) | 19.5 µM (inactive) | 21.5 µM (inactive) |
| CCCCCCN(C(=O)Oc1ccccc1)C(C#N)c1ccccc1 (stereo not drawn) | > 100 µM (inactive) | > 100 µM (inactive) | > 100 µM (inactive) | > 100 µM (inactive) | > 100 µM (inactive) | > 100 µM (inactive) | > 100 µM (inactive) | > 100 µM (inactive) | > 100 µM (inactive) | > 100 µM (inactive) | – | > 100 µM (inactive) | > 100 µM (inactive) | > 100 µM (inactive) | > 100 µM (inactive) | > 100 µM (inactive) | > 100 µM (inactive) | > 100 µM (inactive) | > 100 µM (inactive) | > 100 µM (inactive) |
| COc1ccccc1-n1cnc2c1=NC(C)(C)NC=2C(N)=O | > 100 µM (inactive) | > 100 µM (inactive) | > 100 µM (inactive) | > 100 µM (inactive) | > 100 µM (inactive) | > 100 µM (inactive) | > 100 µM (inactive) | > 100 µM (inactive) | > 100 µM (inactive) | > 100 µM (inactive) | > 100 µM (inactive) | > 100 µM (inactive) | > 100 µM (inactive) | > 100 µM (inactive) | > 100 µM (inactive) | > 100 µM (inactive) | > 100 µM (inactive) | > 100 µM (inactive) | – | > 100 µM (inactive) |
| C[n+]1c2ccc(Cl)cc2nc2cc(-c3ccccc3)ccc21 | 18.9 µM (inactive) | 60.7 µM (inactive) | 10.8 µM (inactive) | 4.95 µM (inactive) | 2.9 µM (inactive) | 4.65 µM (inactive) | 5.69 µM (inactive) | 4.65 µM (inactive) | 19.1 µM (inactive) | 5.41 µM (inactive) | 14.9 µM (inactive) | 16 µM (inactive) | 2.03 µM (inactive) | 10.5 µM (inactive) | 26.1 µM (inactive) | 14.7 µM (inactive) | – | 15.6 µM (inactive) | 21.3 µM (inactive) | 3.06 µM (inactive) |
| ON[C@@H]1C=C[C@H](n2cnc3c(NC4CC4)ncnc32)C1 | > 100 µM (inactive) | > 100 µM (inactive) | > 100 µM (inactive) | > 100 µM (inactive) | > 100 µM (inactive) | > 100 µM (inactive) | 87.5 µM (inactive) | > 100 µM (inactive) | > 100 µM (inactive) | > 100 µM (inactive) | > 100 µM (inactive) | > 100 µM (inactive) | > 100 µM (inactive) | > 100 µM (inactive) | > 100 µM (inactive) | > 100 µM (inactive) | > 100 µM (inactive) | > 100 µM (inactive) | > 100 µM (inactive) | – |
| CC(=O)c1cccc(NC(=O)C(=O)NNc2nnc(S)n2N)c1 | 7.33 µM (inactive) | 3.48 µM (inactive) | 14.2 µM (inactive) | 14.1 µM (inactive) | 9.4 µM (inactive) | 11.1 µM (inactive) | 1.64 µM (inactive) | 1.89 µM (inactive) | 12.2 µM (inactive) | 3.18 µM (inactive) | 4.17 µM (inactive) | 6.37 µM (inactive) | 3.99 µM (inactive) | 3.27 µM (inactive) | 10.4 µM (inactive) | 9.62 µM (inactive) | 20.5 µM (inactive) | 2.75 µM (inactive) | 9.16 µM (inactive) | 3.18 µM (inactive) |
| C=C(Cl)C(=C)CCC(Cl)C(C)(C)Cl (stereo not drawn) | > 100 µM (inactive) | > 100 µM (inactive) | > 100 µM (inactive) | > 100 µM (inactive) | > 100 µM (inactive) | > 100 µM (inactive) | > 100 µM (inactive) | > 100 µM (inactive) | > 100 µM (inactive) | > 100 µM (inactive) | > 100 µM (inactive) | > 100 µM (inactive) | > 100 µM (inactive) | > 100 µM (inactive) | > 100 µM (inactive) | > 100 µM (inactive) | > 100 µM (inactive) | > 100 µM (inactive) | > 100 µM (inactive) | > 100 µM (inactive) |
| COCn1c2ccc(OC(C)=O)cc2c2c(=O)oc(C)nc21 | > 100 µM (inactive) | > 100 µM (inactive) | > 100 µM (inactive) | > 100 µM (inactive) | 0.497 µM (active) | > 100 µM (inactive) | > 100 µM (inactive) | > 100 µM (inactive) | > 100 µM (inactive) | > 100 µM (inactive) | > 100 µM (inactive) | > 100 µM (inactive) | – | > 100 µM (inactive) | > 100 µM (inactive) | > 100 µM (inactive) | > 100 µM (inactive) | > 100 µM (inactive) | > 100 µM (inactive) | > 100 µM (inactive) |
| CC(C)[C@@H]1NC(=O)[C@H]2N=C(O[C@@H]2C)[C@@H]2CCCN2C(=O)[C@H](Cc2ccccc2)NC(=O)[C@@H]2CSC(=N2)[C@@H](Cc2ccccc2)NC(=O)[C@@H]2CSC1=N2 | > 50 µM (inactive) | 16.3 µM (inactive) | > 50 µM (inactive) | 21.9 µM (inactive) | 38.8 µM (inactive) | 25.6 µM (inactive) | 23.7 µM (inactive) | > 50 µM (inactive) | 38.5 µM (inactive) | > 50 µM (inactive) | – | 29.1 µM (inactive) | 47 µM (inactive) | 21.8 µM (inactive) | 39 µM (inactive) | > 50 µM (inactive) | > 50 µM (inactive) | > 50 µM (inactive) | > 50 µM (inactive) | 7.46 µM (inactive) |
| NC(=O)N/N=C1/c2ccccc2-n2nccc21 | 43.5 µM (inactive) | 37.6 µM (inactive) | > 100 µM (inactive) | 52.5 µM (inactive) | 76.4 µM (inactive) | > 100 µM (inactive) | 51.3 µM (inactive) | 71.9 µM (inactive) | 45.5 µM (inactive) | > 100 µM (inactive) | 45.1 µM (inactive) | > 100 µM (inactive) | 40.7 µM (inactive) | > 100 µM (inactive) | 25.9 µM (inactive) | 87.1 µM (inactive) | > 100 µM (inactive) | > 100 µM (inactive) | – | 8.59 µM (inactive) |
| COC(=O)[C@H](Cc1ccccc1)NC(=O)[C@H](Cc1ccccc1)NC(=O)CN1C(=O)[C@@H]2C3C=CC(C3)[C@@H]2C1=O | 16.7 µM (inactive) and 16.2 µM (inactive) | – | 19.8 µM (inactive) and 18.7 µM (inactive) | 17.3 µM (inactive) and 16.7 µM (inactive) | 19.2 µM (inactive) and 20 µM (inactive) | 20.7 µM (inactive) and 17.1 µM (inactive) | 18.3 µM (inactive) and 17.9 µM (inactive) | 19.9 µM (inactive) and 18.6 µM (inactive) | 20.1 µM (inactive) and 19.1 µM (inactive) | 17.6 µM (inactive) and 17.2 µM (inactive) | 21.2 µM (inactive) and 20.6 µM (inactive) | 16 µM (inactive) and 14.1 µM (inactive) | 16.6 µM (inactive) and 18 µM (inactive) | 15.6 µM (inactive) and 16.4 µM (inactive) | 20.5 µM (inactive) and 18.4 µM (inactive) | 13.2 µM (inactive) and 17.7 µM (inactive) | 16.7 µM (inactive) | 17.6 µM (inactive) and 16.4 µM (inactive) | 23.3 µM (inactive) and 15.7 µM (inactive) | 11 µM (inactive) |
